Values belong to the molecule of their own block, whether it stands above or below them. The source made the active and inactive calls. The rule behind the calls is not given here.
Legend:
BaF3 [1] = test: Induction of EGFR del19/T790M/C797S triple mutant degradation in mouse BaF3 cells at 0.1 uM measured after 3 hrs by Western blot analysis relative to control; type: cell-based
BaF3 [2] = test: Induction of EGFR del19/T790M/C797S triple mutant degradation in mouse BaF3 cells at 0.01 uM measured after 3 hrs by Western blot analysis relative to control; type: cell-based
BaF3 [3] = test: Antiproliferative activity against mouse BaF3 cells expressing EGFR del19/T790M/C797S triple mutant assessed as cell growth inhibition measured after 72 hrs by CCK8 assay; type: functional, cell-based; details: BaF3, 72 h
BaF3 [4] = test: Inhibition of ERK phosphorylation in mouse BaF3 cells expressing EGFR del19/T790M/C797S triple mutant after 3 hrs by Western blot analysis; type: cell-based; details: dose 0.001-10 µM
[5] = molecular target: Epidermal growth factor receptor (Homo sapiens) (UniProt P00533); test: Induction of EGFR degradation in human A-431 cells assessed as decrease in EGFR protein level at 0.005 to 0.5 uM measured after 3 hrs by Western blot assay; type: cell-based; details: dose 0.005-0.5 µM
BaF3 [6] = test: Induction of EGFR del19/T790M/C797S triple mutant degradation in mouse BaF3 cells at 0.1 uM preincubated with compound for 3 hrs followed by compound washout and measured after 24 hrs by Western blot analysis; type: cell-based
[7] = tested on: Epidermal growth factor receptor (Homo sapiens), P00533 [L858R,T790M]; test: Induction of EGFR L858R/T790M mutant degradation in human NCI-H1975 cells assessed as decrease in EGFR protein level at 0.005 to 0.5 uM measured after 3 hrs by Western blot assay; type: cell-based; details: dose 0.005-0.5 µM
[8] = molecular target: RAC-alpha serine/threonine-protein kinase (Mus musculus) (UniProt P31750); test: Inhibition of Akt phosphorylation in mouse BaF3 cells expressing EGFR del19/T790M/C797S triple mutant after 3 hrs by Western blot analysis; type: cell-based; details: dose 0.001-10 µM
HCC827 = test: Antiproliferative activity against human HCC827 cells expressing EGFR del19 mutant assessed as cell growth inhibition after 72 hrs by CCK-8 assay; type: functional, cell-based; details: HCC827, 72 h
NCI-H3255 = test: Antiproliferative activity against human NCI-H3255 cells expressing L858R mutant assessed as cell growth inhibition after 72 hrs by CCK-8 assay; type: functional, cell-based; details: NCI-H3255, 72 h
BaF3 [9] = test: Induction of EGFR del19/T790M/C797S triple mutant degradation in mouse BaF3 cells at 0.1 uM preincubated for 3 hrs with VHL ligand 5 followed by compound addition and measured after 3 hrs by Western blot analysis; type: cell-based
BaF3 [10] = test: Induction of EGFR del19/T790M/C797S triple mutant degradation in mouse BaF3 cells after 3 hrs by immunoblotting analysis; type: cell-based; details: dose 0.001-10 µM
[11] = tested on: Epidermal growth factor receptor (Homo sapiens), P00533 [L858R]; test: Induction of EGFR L858R mutant degradation in human […] cells assessed as decrease in EGFR protein level at 0.005 to 0.5 uM measured after 3 hrs by Western blot assay; type: cell-based; details: NCI-H3255, dose 0.005-0.5 µM
[12] = tested on: Epidermal growth factor receptor (Homo sapiens), P00533 [UNDEFINED MUTATION]; test: Induction of EGFR del19 mutant degradation in human HCC827 cells assessed as decrease in EGFR protein level at 0.005 to 0.5 uM measured after 3 hrs by Western blot assay; type: cell-based; details: dose 0.005-0.5 µM
BaF3 [13] = test: Induction of EGFR del19/T790M/C797S triple mutant degradation in mouse BaF3 cells at 0.1 uM preincubated for 2 hrs with proteosome inhibitor MG132 followed by compound addition and measured after 3 hrs by Western blot analysis; type: cell-based
NCI-H1975 = test: Antiproliferative activity against human NCI-H1975 cells expressing EGFR L858R/T790M double mutant assessed as cell growth inhibition after 72 hrs by CCK-8 assay; type: functional, cell-based; details: NCI-H1975, 72 h
BaF3 [14] = test: Induction of EGFR del19/T790M/C797S triple mutant degradation in mouse BaF3 cells at 0.1 uM preincubated for 3 hrs with EGFR inhibitor 3 followed by compound addition and measured after 3 hrs by Western blot analysis; type: cell-based
A-431 = test: Antiproliferative activity against human A-431 cells expressing wild-type EGFR assessed as cell growth inhibition after 72 hrs by CCK-8 assay; type: functional, cell-based; details: A-431, 72 h
EML4-ALK (Homo sapiens) = EML4-ALK (Homo sapiens) (UniProt Q9UM73+Q9HC35); test: Induction of EML4-ALK fusion protein degradation in mouse BaF3 cells at 0.001 to 10 uM after 3 hrs by Western blot analysis; type: cell-based; details: dose 0.001-10 µM
BaF3 [15] = test: Induction of EGFR del19/T790M/C797S triple mutant degradation in mouse BaF3 cells at 1 uM after 3 hrs by immunoblotting analysis relative to control; type: cell-based
BaF3 [16] = test: Induction of EGFR del19/T790M/C797S triple mutant degradation in mouse BaF3 cells at 0.1 uM measured after 3 to 24 hrs by Western blot analysis; type: cell-based; details: time 3-24 hrs
BaF3 [17] = test: Induction of EGFR del19/T790M/C797S triple mutant degradation in mouse BaF3 cells at 0.01 to 0.1 uM measured after 3 hrs by Western blot analysis; type: cell-based; details: dose 0.01-0.1 µM

RAC-alpha serine/threonine-protein kinase (Mus musculus), sequence (P31750 whole entry): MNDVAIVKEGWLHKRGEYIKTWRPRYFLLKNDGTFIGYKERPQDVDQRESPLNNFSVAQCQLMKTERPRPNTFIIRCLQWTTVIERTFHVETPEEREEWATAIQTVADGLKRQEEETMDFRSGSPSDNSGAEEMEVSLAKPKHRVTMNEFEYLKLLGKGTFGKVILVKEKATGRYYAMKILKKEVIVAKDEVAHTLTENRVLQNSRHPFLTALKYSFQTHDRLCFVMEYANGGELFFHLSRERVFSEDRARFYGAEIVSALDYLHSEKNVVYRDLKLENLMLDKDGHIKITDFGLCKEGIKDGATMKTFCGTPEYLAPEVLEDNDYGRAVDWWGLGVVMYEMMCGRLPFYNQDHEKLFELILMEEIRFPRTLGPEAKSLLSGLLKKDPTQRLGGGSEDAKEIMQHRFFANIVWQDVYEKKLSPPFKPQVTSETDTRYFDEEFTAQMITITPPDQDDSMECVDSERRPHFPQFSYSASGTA
EML4-ALK (Homo sapiens), sequence (Q9HC35 whole entry partner, the tested form may be a part): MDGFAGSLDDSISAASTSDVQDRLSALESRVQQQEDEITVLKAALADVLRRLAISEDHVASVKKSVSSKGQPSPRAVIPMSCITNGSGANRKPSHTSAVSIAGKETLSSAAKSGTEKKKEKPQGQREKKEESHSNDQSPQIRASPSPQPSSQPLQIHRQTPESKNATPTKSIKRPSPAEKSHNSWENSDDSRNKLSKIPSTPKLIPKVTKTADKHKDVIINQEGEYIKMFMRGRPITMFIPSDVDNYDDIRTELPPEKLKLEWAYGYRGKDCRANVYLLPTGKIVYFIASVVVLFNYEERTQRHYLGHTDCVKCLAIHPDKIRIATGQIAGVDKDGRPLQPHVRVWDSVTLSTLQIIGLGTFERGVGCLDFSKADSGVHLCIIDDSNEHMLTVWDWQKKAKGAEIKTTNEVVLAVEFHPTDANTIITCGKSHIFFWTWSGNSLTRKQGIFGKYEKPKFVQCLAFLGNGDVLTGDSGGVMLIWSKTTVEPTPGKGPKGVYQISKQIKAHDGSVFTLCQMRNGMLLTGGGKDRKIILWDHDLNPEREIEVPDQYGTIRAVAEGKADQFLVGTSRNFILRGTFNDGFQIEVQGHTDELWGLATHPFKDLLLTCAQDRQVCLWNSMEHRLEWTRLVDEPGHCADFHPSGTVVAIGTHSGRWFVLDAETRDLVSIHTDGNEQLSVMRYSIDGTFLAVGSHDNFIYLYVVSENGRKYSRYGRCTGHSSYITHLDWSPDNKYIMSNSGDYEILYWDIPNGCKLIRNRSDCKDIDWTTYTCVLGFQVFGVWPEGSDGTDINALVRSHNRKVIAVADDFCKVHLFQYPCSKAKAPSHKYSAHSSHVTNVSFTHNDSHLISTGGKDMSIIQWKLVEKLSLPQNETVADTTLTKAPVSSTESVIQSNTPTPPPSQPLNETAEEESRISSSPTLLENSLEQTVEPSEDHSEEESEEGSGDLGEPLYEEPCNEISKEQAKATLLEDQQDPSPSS
EML4-ALK (Homo sapiens), sequence (Q9UM73 19-1620 limits assumed): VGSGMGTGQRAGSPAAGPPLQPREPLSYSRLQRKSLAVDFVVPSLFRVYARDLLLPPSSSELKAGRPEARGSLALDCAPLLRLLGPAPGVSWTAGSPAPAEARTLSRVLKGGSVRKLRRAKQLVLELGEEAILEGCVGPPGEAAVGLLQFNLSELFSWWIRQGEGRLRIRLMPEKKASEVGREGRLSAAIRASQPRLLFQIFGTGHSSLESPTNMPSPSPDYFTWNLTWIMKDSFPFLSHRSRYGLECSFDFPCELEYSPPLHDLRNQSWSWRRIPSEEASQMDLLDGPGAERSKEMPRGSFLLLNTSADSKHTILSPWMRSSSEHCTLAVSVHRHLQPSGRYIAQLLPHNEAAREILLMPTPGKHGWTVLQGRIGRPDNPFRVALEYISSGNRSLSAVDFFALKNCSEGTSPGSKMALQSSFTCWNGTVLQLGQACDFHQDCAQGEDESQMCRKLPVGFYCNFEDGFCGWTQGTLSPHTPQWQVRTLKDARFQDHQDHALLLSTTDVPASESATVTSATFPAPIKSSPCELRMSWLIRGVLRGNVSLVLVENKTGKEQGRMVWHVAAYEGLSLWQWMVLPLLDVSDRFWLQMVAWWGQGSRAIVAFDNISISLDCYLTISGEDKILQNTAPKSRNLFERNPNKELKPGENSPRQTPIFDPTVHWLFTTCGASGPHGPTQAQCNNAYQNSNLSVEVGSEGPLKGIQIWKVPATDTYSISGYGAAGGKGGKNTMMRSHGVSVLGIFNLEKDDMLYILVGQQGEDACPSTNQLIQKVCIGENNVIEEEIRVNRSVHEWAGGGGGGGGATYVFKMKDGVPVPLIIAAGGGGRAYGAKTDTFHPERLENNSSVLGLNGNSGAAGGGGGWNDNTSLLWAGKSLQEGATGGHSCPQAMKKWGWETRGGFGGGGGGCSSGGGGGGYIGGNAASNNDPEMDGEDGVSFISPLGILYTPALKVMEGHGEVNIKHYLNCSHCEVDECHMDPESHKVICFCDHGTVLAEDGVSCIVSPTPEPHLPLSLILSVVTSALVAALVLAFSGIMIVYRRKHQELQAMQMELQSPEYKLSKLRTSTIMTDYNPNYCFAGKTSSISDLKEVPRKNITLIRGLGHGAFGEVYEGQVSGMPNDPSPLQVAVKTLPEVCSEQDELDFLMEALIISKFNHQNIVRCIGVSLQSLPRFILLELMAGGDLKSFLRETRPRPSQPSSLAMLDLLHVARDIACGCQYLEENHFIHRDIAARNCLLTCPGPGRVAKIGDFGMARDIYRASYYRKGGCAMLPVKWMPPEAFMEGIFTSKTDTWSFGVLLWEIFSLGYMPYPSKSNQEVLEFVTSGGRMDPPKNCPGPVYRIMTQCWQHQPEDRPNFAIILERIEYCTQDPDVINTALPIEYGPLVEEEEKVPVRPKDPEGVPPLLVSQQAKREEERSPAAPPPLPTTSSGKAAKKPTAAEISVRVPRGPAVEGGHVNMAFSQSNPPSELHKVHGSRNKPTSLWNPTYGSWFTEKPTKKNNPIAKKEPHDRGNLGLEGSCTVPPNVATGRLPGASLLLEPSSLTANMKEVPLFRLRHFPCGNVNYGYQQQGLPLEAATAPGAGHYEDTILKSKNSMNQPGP

Compound: COc1cc(C2CCN(CCCCCC(=O)N[C@H](C(=O)N3C[C@H](O)C[C@H]3C(=O)N[C@@H](C)c3ccc(-c4scnc4C)cc3)C(C)(C)C)CC2)ccc1Nc1ncc(Cl)c(Nc2ccccc2NS(C)(=O)=O)n1
Activity (BaF3 [1]): 35.2% | Activity (BaF3 [2]): 14% | IC50 (BaF3 [3]): 370 nM

Compound: COc1cc(C2CCN(CCCCCC(=O)N[C@H](C(=O)N3C[C@H](O)C[C@H]3C(=O)N[C@@H](C)c3ccc(-c4scnc4C)cc3)C(C)(C)C)CC2)ccc1Nc1ncc(Cl)c(Nc2ccccc2N(C)S(C)(=O)=O)n1
Activity (BaF3 [1]): 74.1% | Activity (BaF3 [2]): 58.4% | IC50 (BaF3 [3]): 70 nM

Compound: COc1cc(N2CCN(CCCCCCCC(=O)N[C@H](C(=O)N3C[C@@H](O)C[C@H]3C(=O)N[C@@H](C)c3ccc(-c4scnc4C)cc3)C(C)(C)C)CC2)ccc1Nc1ncc(Cl)c(Nc2ccccc2P(C)(C)=O)n1
Activity (BaF3 [17]): inactive

Compound: COc1cc(N2CCN(CCCCCC(=O)N[C@H](C(=O)N3C[C@H](O)C[C@H]3C(=O)N[C@@H](C)c3ccc(-c4scnc4C)cc3)C(C)(C)C)CC2)ccc1Nc1ncc(Cl)c(Nc2ccccc2S(=O)(=O)C(C)C)n1
Activity (BaF3 [1]): 56.9% | Activity (BaF3 [2]): 48.5% | IC50 (BaF3 [3]): 240 nM

Second part, led by results:

Activity [5]: inactive | Activity [7]: inactive | inhibition [8]: Dose-Dependent Effect | IC50 (HCC827): 229 nM | IC50 (NCI-H3255): 604 nM | Activity [11]: inactive | Activity [12]: Active | IC50 (NCI-H1975): 1130 nM | IC50 (BaF3 [3]): 20 nM | IC50 (A-431): 526 nM | Activity (EML4-ALK (Homo sapiens)): inactive
Compound: COc1cc(N2CCN(CCCCCCCC(=O)N[C@H](C(=O)N3C[C@H](O)C[C@H]3C(=O)N[C@@H](C)c3ccc(-c4scnc4C)cc3)C(C)(C)C)CC2)ccc1Nc1ncc(Cl)c(Nc2ccccc2P(C)(C)=O)n1
inhibition (BaF3 [4]): Dose-Dependent Effect | Activity (BaF3 [6]): Active | Activity (BaF3 [1]): 79.1% | Activity (BaF3 [9]): inactive | Activity (BaF3 [10]): Dose-Dependent Effect | Activity (BaF3 [13]): inactive | Activity (BaF3 [2]): 52% | Activity (BaF3 [14]): inactive | Activity (BaF3 [15]): 49.6% | Activity (BaF3 [16]): Active

IC50 (BaF3 [3]): 370 nM
Compound: COc1cc(N2CCN(CCCC(=O)N[C@H](C(=O)N3C[C@H](O)C[C@H]3C(=O)N[C@@H](C)c3ccc(-c4scnc4C)cc3)C(C)(C)C)CC2)ccc1Nc1ncc(Cl)c(Nc2ccccc2P(C)(C)=O)n1
Activity (BaF3 [1]): 22.7% | Activity (BaF3 [2]): 6.2%

IC50 (BaF3 [3]): 50 nM
Compound: COc1cc(N2CCN(CCCCCC(=O)N[C@H](C(=O)N3C[C@H](O)C[C@H]3C(=O)N[C@@H](C)c3ccc(-c4scnc4C)cc3)C(C)(C)C)CC2)ccc1Nc1ncc(Cl)c(Nc2ccccc2P(C)(C)=O)n1
Activity (BaF3 [1]): 75.4% | Activity (BaF3 [2]): 53.7%
